According to article PMC4423475, “Structure-based discovery of the first non-covalent inhibitors of Leishmania major tryparedoxin peroxidase by high throughput docking” (Scientific Reports, 2015):

Columns and labels:
[1] = biological target: T1, horseradish peroxidase (HRP) (Armoracia rusticana, UniProt P00433); assay: HRP inhibition control (compounds tested for their ability to inhibit HRP); format: biochemical; settings: compound at 100 μM; for HRP inhibition: first series (HTD hits)
T1 sequence (P00433 31-353): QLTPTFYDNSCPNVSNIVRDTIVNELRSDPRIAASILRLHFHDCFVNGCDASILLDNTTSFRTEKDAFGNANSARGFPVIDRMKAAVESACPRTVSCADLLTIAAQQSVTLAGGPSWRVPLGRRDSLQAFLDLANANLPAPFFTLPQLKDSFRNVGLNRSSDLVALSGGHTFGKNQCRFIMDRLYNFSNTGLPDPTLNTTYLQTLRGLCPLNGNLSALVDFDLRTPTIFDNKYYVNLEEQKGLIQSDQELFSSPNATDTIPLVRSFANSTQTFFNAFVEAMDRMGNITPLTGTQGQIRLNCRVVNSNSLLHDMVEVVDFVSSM
Procedure: (§1) The compounds ability to inhibit TXNPx has been evaluated by simply measuring the following ratio: ΔA/ΔA0 where ΔA0 is the difference in absorbance between HRP and compound I (ΔA0 = 0.04) and ΔA is the difference in absorbance between HRP and compound I in the presence of LmTXNPx and 100 μM inhibitors. All the compounds have been previously tested for their ability to inhibit HRP at a concentration of 100 μM.

[2] = biological target: T2, LmTXNPx (Leishmania major, UniProt Q4QF76); assay: HRP-H2O2 competition assay (LmTXNPx inhibition assay); format: biochemical
T2 sequence (Q4QF76 entry or part of it): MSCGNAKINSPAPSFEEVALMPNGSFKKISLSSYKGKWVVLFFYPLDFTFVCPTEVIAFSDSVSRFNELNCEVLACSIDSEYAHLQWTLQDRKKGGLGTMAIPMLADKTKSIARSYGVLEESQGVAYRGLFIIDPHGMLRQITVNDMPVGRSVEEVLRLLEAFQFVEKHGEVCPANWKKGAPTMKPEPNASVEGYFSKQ
Description: To determine the ability of the selected compounds to inhibit the catalytic activity of LmTXNPx, we used the horseradish peroxidase (HRP)-H2O2 competition assay developed by Augusto and co-workers[16]. HRP is well known to react with H2O2 in a two-electron oxidation process that leads to the formation of HRP compound I (HRP-I), a stable HRP oxidized intermediate that can be followed at 398 nm. Reduced LmTXNPx competes with HRP for the H2O2 substrate, leading to a decrease in HRP-I yield that is proportional to LmTXNPx concentration. The addition of LmTXNPx inhibitors leads to a decrease in free LmTXNPx concentration and consequent increase in the HRP-I yield.
Competition kinetics have been performed for determining the activity of the compounds selected by HTD. The ability of the compounds to inhibit the H2O2 reduction by LmTXNPx has been determined by competition approach utilizing the well-known reactivity of H2O2 with horseradish peroxidase (HRP)[16][20][26]. HRP is a heme-containing peroxidase, which uses hydrogen peroxide (by reducing it to water) to oxidize different organic substrates to free radicals. The reaction takes place in three steps: • PFe(III) + H2O2 → P^·+Fe(IV) = O + H2O • P^·+Fe(IV) = O + X → X^• + PFe(IV) = O • PFe(IV) = O + X + 2H^+ → PFe(III) + X^· + H2O
Where PFe(III) is HRP (the native protein), P^·+Fe(IV) = O is the HRP compound I (HRP-I), PFe(IV) = O is the HRP compound II (HRP-II) and X is a generic substrate. The formation of HPR-I results in a change in light absorption in the visible range (Δε403 nm = 5.4 × 10^4 M^−1cm^−1). For kinetic studies the HRP oxidation is monitored at 398 nm (Δε398 nm = 4.2 × 10^4 M^−1cm^−1) instead of 403 nm (wavelength corresponding to the maximum of HRP absorbance) in order to avoid interferences arising from HRP-I reduction to HRP-II. This method is usually used to determine the second order rate constant of 2Cys- Peroxiredoxin reaction with hydrogen peroxide and peroxinitrite.
Thus, H2O2-mediated HRP oxidation is a two-electron oxidation process, leading to the formation of HRP-I, followed at 398 nm. The addition of increasing concentrations of pre-reduced LmTXNPx led to a lower yield in HRP-I since two reactions take place in solution: [drawing 1] [drawing 2]
Where I indicates the inhibitor and LmTXNPx-I indicates the complex between LmTXNPx and the inhibitor. The addition of active LmTXNPx inhibitors led to a decrease in the free LmTXNPx and the consequent recover in the HRP-I yield and therefore to a partial or total recover of the ΔA.
The HRP-based indirect kinetic assays to test the inhibitors was performed in the following way: HRP 2 μM was exposed to H2O2 0.25 μM in sodium phosphate buffer pH 7.4 and 25°C, either in the absence or in the presence of the indicated concentrations of reduced LmTXNPx and in the absence or in the presence of inhibitors. The relative changes in absorbance at 398 nm (ΔA/ΔA0), reflecting HRP-I formation, were determined.
as §1

[3] = biological target: T2, LmTXNPx; assay: Surface plasmon resonance, immobilized LmTXNPx; format: binding; settings: SPR, 1:1 steady-state affinity model
Procedure: SPR experiments were carried out using a SensiQ Pioneer system (SensiQ, ICxNomadics Inc.). The interaction of the immobilized protein with the analytes was detected by mass concentration-dependent changes of the refractive index on the sensor chip surface. The changes in the observed SPR signal are expressed as Resonance Units (RU). Typically, a response change of 1000 RU corresponds to a change in the surface concentration on the sensor chip of about 1 ng of protein per mm^2.
The sensor chips (COOH5 SensiQ) were chemically activated by injection of 250 μl of a 1:1 mixture of N-hydroxysuccinimide (50 mM) and N-ethyl-N-(3-dimethylaminopropyl)carbodiimide (200 mM) at a flow rate of 25 μl/min. Recombinant LmTXNPx was immobilized on the activated sensor chip via amine coupling. The reaction was carried out at a rate of […] in 20 mM sodium acetate at pH 4.5; the remaining ester groups were blocked by injecting 100 μL of 1 M ethanolamine hydrochloride. Recombinant LmTXNPx was captured to approximately 2000 RU. The analytes were dissolved at a concentration of 10 mM or 20 mM in dimethylsulfoxide (DMSO), and diluted 1:100 in HEPES-buffered saline (HBS: 10 mM HEPES, pH 7.4; 150 mM NaCl; 0.005% surfactant P20).
FastStep injections of samples (100 or 200 μM analytes in HBS + 1% DMSO), and reference buffer (HBS + 1% DMSO) were performed: either the inhibitor and reference buffer were automatically diluted in HBS and injected by 7 serial doubling steps (step contact time = 15 s, nominal flow rate = 200 μl/min). The following analytes were injected: 0–17 s: analyte concentration = 3.12 μM; 17–33 s: 6.25 μM; 33–48 s: 12.5 μM; 48–62 s: 25 μM; 63–78 s: 50 μM; 78–93 s: 100 μM; 94–100 s: 200 μM; for each injection, a maximal RU value was obtained. In control experiments, the sensor chip was treated as described above in the absence of immobilized protein.
Each sensorgram is the average of three different experiments. Sensorgrams were subjected to global analysis using QDat software 2.2.0.23, and for each analyte concentration a % Response was calculated, allowing a local Rmax fit (according to the molecular weight of each compound) and displaying as a response relative to the Rmax. % Response vs. analyte concentration was plotted and a KD value was calculated for each analyte by fitting a simple 1:1 steady-state affinity model to the data.

[4] = residual activity of HRP, HRP 2 μM, H2O2 0.25 μM, 2.5 μM LmTXNPx, 100 μM inhibitors, sodium phosphate buffer pH 7.4, 25°C
[5] = first series (HTD hits), HRP 2 µM, H2O2 0.25 µM, 2.5 µM LmTXNPx, 100 µM inhibitors, pH 7.4, 25 °C

HRP inhib. [1] | (ΔA/ΔA0) × 100 [2, 4] [%] | Kd [3] [µM] | HRP inhibition [1] | (ΔA/ΔA0) × 100 [2, 5] [%] | SMILES
No | 44 ± 6 | 354 ± 12 |  |  | COc1cc2cc(CN(Cc3ccc(F)cc3)Cc3nnnn3Cc3cccc(N)c3)c(=O)[nH]c2cc1OC [Compound 3, 3-((((1-(3-Aminobenzyl)-1H-tetrazol-5-yl)methyl)(4-fluorobenzyl)amino)methyl)-6,7-dimethoxyquinolin-2(1H)-one]
Yes |  | 74 ± 3 |  |  | COc1cc2cc(CN(Cc3ccccc3)Cc3nnnn3Cc3ccccc3)c(=O)[nH]c2cc1OC [Compound 9, 3-((((1-Benzyl-1H-tetrazol-5-yl)methyl)benzylamino)methyl)-6,7-dimethoxyquinolin-2(1H)-one]
 |  | 156 ± 5 |  |  | COc1cc2cc(CN(Cc3ccc(F)cc3)Cc3nnnn3Cc3cccc(N(C)C)c3)c(=O)[nH]c2cc1OC [Compound 4, 3-((((1-(3-(Dimethylamino)benzyl)-1H-tetrazol-5-yl)methyl)(4-fluorobenzyl)amino)methyl)-6,7-dimethoxyquinolin-2(1H)-one]
Yes |  | 63 ± 3 |  |  | COc1cc2cc(CN(Cc3ccc(Cl)cc3)Cc3nnnn3Cc3ccccc3)c(=O)[nH]c2cc1OC [Compound 10, 3-((((1-Benzyl-1H-tetrazol-5-yl)methyl)(4-chlorobenzyl)amino)methyl)-6,7-dimethoxyquinolin-2(1H)-one]
No | 45 ± 15 | 104 ± 4 |  |  | O=c1[nH]c2ccccc2cc1CN(Cc1ccc(F)cc1)Cc1nnnn1Cc1ccccc1 [Compound 8, 3-((((1-Benzyl-1H-tetrazol-5-yl)methyl)(4-fluorobenzyl)amino)methyl)quinolin-2(1H)-one]
 |  |  | Yes |  | CCOC(=O)Cc1csc(NC(=O)CSc2nc(C(C)C)nc3sc(C)c(C)c23)n1 [NF2013]
No | 60 ± 7 | 47 ± 1 |  |  | COc1ccc2[nH]c(=O)c(CN(Cc3ccc(F)cc3)Cc3nnnn3Cc3ccccc3)cc2c1 [Compound 7, 3-((((1-Benzyl-1H-tetrazol-5-yl)methyl)(4-fluorobenzyl)amino)methyl)-6-methoxyquinolin-2(1H)-one]
No | 93 ± 6 | 39 ± 1 |  |  | COc1cc2cc(CN(Cc3nnnn3Cc3ccccc3)CC34CC5CC(CC(C5)C3)C4)c(=O)[nH]c2cc1OC [Compound 12, 3-((((1-Benzyl-1H-tetrazol-5-yl)methyl)(1-adamantylmethyl)amino)methyl)-6,7-dimethoxyquinolin-2(1H)-one]
No | 37 ± 20 | 112 ± 4 |  |  | COc1cc2cc(CN(Cc3ccc(Br)cc3)Cc3nnnn3Cc3ccccc3)c(=O)[nH]c2cc1OC [Compound 11, 3-((((1-Benzyl-1H-tetrazol-5-yl)methyl)(4-bromobenzyl)amino)methyl)-6,7-dimethoxyquinolin-2(1H)-one]
No | 75 ± 9 | 52 ± 1 |  |  | COc1cc2cc(CN(Cc3ccc(F)cc3)Cc3nnnn3Cc3cccc(-c4ccccc4)c3)c(=O)[nH]c2cc1OC [Compound 6, 3-((((1-([1,1′-Biphenyl]-3-ylmethyl)-1H-tetrazol-5-yl)methyl)(4-fluorobenzyl)amino)methyl)-6,7-dimethoxyquinolin-2(1H)-one]
No | 71 ± 6 | 281 ± 11 |  |  | COc1cc2cc(CN(Cc3ccc(F)cc3)Cc3nnnn3Cc3cccc(I)c3)c(=O)[nH]c2cc1OC [Compound 5, 3-(((4-Fluorobenzyl)((1-(3-iodobenzyl)-1H-tetrazol-5-yl)methyl)amino)methyl)-6,7-dimethoxyquinolin-2(1H)-one]
 |  |  | No | 16 ± 6 | O=C(Nc1cc(C(=O)Nc2ccc(S(=O)(=O)[O-])c3cc(S(=O)(=O)[O-])cc(S(=O)(=O)[O-])c23)cc(C(=O)Nc2ccc(S(=O)(=O)[O-])c3cc(S(=O)(=O)[O-])cc(S(=O)(=O)[O-])c23)c1)Nc1cc(C(=O)Nc2ccc(S(=O)(=O)[O-])c3cc(S(=O)(=O)[O-])cc(S(=O)(=O)[O-])c23)cc(C(=O)Nc2ccc(S(=O)(=O)[O-])c3cc(S(=O)(=O)[O-])cc(S(=O)(=O)[O-])c23)c1.[Na+].[Na+].[Na+].[Na+].[Na+].[Na+].[Na+].[Na+].[Na+].[Na+].[Na+].[Na+] [NF864]
No | 37 ± 9 | 172 ± 6 |  |  | COc1cc2cc(CN(Cc3ccc(F)cc3)Cc3nnnn3Cc3cccc([N+](=O)[O-])c3)c(=O)[nH]c2cc1OC [Compound 2, 3-(((4-Fluorobenzyl)((1-(3-nitrobenzyl)-1H-tetrazol-5-yl)methyl)amino)methyl)-6,7-dimethoxyquinolin-2(1H)-one]
No | 52 ± 10 | 290 ± 13 | No | 47 ± 6 | COc1cc2cc(CN(Cc3ccc(F)cc3)Cc3nnnn3Cc3ccccc3)c(=O)[nH]c2cc1OC [Compound 1, 3-((((1-Benzyl-1H-tetrazol-5-yl)methyl)(4-fluorobenzyl)amino)methyl)-6,7-dimethoxyquinolin-2(1H)-one]
